How the values were obtained:
[1] = IM injection of abiraterone acetate formulations in rats; format: in vivo; details: vegetable oil solution versus aqueous suspension
Experimental: Typically, the abiraterone prodrugs of the present disclosure are formulated as a non-aqueous solution or suspension. In some embodiments, the non-aqueous solution or suspension provides higher levels of abiraterone in the plasma for a longer duration, when compared to an aqueous solution or suspension. For example, as detailed herein, IM injections of an aqueous suspension and a vegetable oil solution of the abiraterone acetate prodrug were evaluated in rats. […] Accordingly, in some embodiments, the abiraterone prodrug formulations herein can include an abiraterone prodrug of the present disclosure (e.g., compound of Formula I or II) dissolved or dispersed in a pharmaceutically acceptable carrier. In some embodiments, the pharmaceutically acceptable carrier can be any suitable nonaqueous vehicle suitable for injection, such as those described in U.S. Pharmacopeia. In some embodiments, the pharmaceutically acceptable carrier can be a pharmaceutically acceptable oil, e.g., a vegetable oil, castor oil, corn oil, sesame oil, cottonseed oil, peanut oil, poppy seed oil, tea seed oil, or soybean oil. In some embodiments, the pharmaceutically acceptable oil can be oils (e.g., described herein), suitable for use as vehicles for injection, e.g., meeting the criteria as described in the corresponding U.S. Pharmacopeia monograph. […]

[2] = system: mineralocorticoids, progesterone and pregnenolone; details: cited from earlier work

CC(=O)O[C@H]1CC[C@@]2(C)C(=CC[C@@H]3[C@@H]2CC[C@]2(C)C(c4cccnc4)=CC[C@@H]32)C1 [abiraterone acetate, (3)-17-(3-Pyridyl)androsta-5, acetate]
blood plasma levels and duration of exposure of abiraterone [1]: highest blood plasma levels and the longest duration of exposure
increases in concentrations of mineralocorticoids ([2]; oral administration): 80 fold
men with signs and symptoms of mineralocorticoid excess (hypertension, hypokalemia, edema) ([2]; oral administration): 30%
increases in progesterone and pregnenolone ([2]; oral regimen): 40 fold
